Reference: article PMC8341910, “Structural and biophysical insights into the mode of covalent binding of rationally designed potent BMX inhibitors” (RSC Chemical Biology, 2020)

How the values were obtained:
22 RV1 = assay: Multi cell line growth assay (CellTiter-Glo, 72 h); format: cell-based, human; details: Homo sapiens, 22Rv1, Prostate, ND = no growth inhibition observed
hBMX = molecular target: T1, hBMX (Homo sapiens, UniProt P51813); assay: Mass spectrometry of drug-conjugated hBMX; details: 2.5 mM compound, room temperature, 30 min, PBS pH 7.4; MS/MS after digestion
T1 construct: Crystallization, data collection, and structure determination of BMX catalytic domain in; made in house; host or cells: Sf-9 insect cells
Method: Mass spectrometry (MS) studies confirmed the covalent binding of JS24 at cysteine 496 of BMX. The truncated hBMX was analyzed by native MS and the protein mass found was 30899 Da (Fig. 2a). The protein was then treated with 2.5 mM of JS24 at room temperature for 30 min in PBS pH 7.4 and directly analyzed by denaturing MS. The protein was fully denatured and cleaned on a reverse phase column, discarding any non-specific binding, to retain only any covalently linked compound. The mass found upon incubation with JS24 is 31 424 Da, which is 525 Da larger than the apo-form of hBMX (Fig. 2b).
Fig. 2 Mass spectrometric analysis of BMX and JS24 conjugated to BMX. (a) Native MS analysis of hBMX. The measured molecular weight is indicated. […] The measured molecular weight is indicated. […]
The BMX enzyme system (Catalog. V4512) and the ADP-GloTM kinase assay were purchased from Promega Corporation (USA). […] Then, 10 µL of kinase detection reagent was added into the wells and incubated for 30 min to produce a luminescence signal. The signal was measured using an Infinite M200 Microplate Reader (Tecan Group Ltd, Switzerland), with an integration time of 0.250s. The observed rate constants for inhibition (kobs), at different inhibitor concentrations, were determined from the slope of a semi-logarithmic plot of inhibition versus time, and re-plotted against inhibitor concentration (nM). […]

H1299 = assay: Multi cell line growth assay (CellTiter-Glo, 72 h); format: cell-based, human; details: Homo sapiens, NCI-H1299, Bone marrow (so in the source), ND = no growth inhibition observed
Jurkat = assay: Multi cell line growth assay (CellTiter-Glo, 72 h); format: cell-based, human; details: Homo sapiens, Jurkat, Blood, ND = no growth inhibition observed
SK-N-MC = assay: Multi cell line growth assay (CellTiter-Glo, 72 h); format: cell-based, human; details: Homo sapiens, SK-N-MC, Brain, ND = no growth inhibition observed
AKT2 = AKT2 (Homo sapiens, UniProt P31751); assay: KINOMEscan binding; details: read-out: % Ctrl AKT2
Method: (§1) Therefore, we included the whole TEC, EGFR and JAK family in our screening, and the Src family and Lkb1, which also have a cysteine within the same sequence alignment. We also included kinases involved in upstream (Src, FAK, PI3K, mTOR, PDK1) and downstream (Akt, PAK1, TAM) regulation of BMX signaling pathway and non-receptor tyrosine protein kinase Abl.
(§2) Kinome selectivity was performed with DiscoverX KINOMEscan™ technology.

ERBB4 = ERBB4 (Homo sapiens, UniProt Q15303); assay: KINOMEscan binding; details: read-out: % Ctrl ERBB4
Method: (§3) Therefore, we included the whole TEC, EGFR and JAK family in our screening, and the Src family and Lkb1, which also have a cysteine within the same sequence alignment.
as §2

FYN = FYN (Homo sapiens, UniProt P06241); assay: KINOMEscan binding; details: read-out: % Ctrl FYN
Method: as §1, §2

AXL = AXL (Homo sapiens, UniProt P30530); assay: KINOMEscan binding; details: read-out: % Ctrl AXL
Method: as §1, §2

PIK3CG = PIK3CG (Homo sapiens, UniProt P48736); assay: KINOMEscan binding; details: read-out: % Ctrl PIK3CG
Method: as §1, §2

YES1 = YES1 (Homo sapiens, UniProt P07947); assay: KINOMEscan binding; details: read-out: % Ctrl YES1
Method: as §3, §2

PIK3CD = PIK3CD (Homo sapiens, UniProt O00329); assay: KINOMEscan binding; details: read-out: % Ctrl PIK3CD
Method: as §1, §2

TXK = TXK (Homo sapiens, UniProt P42681); assay: KINOMEscan binding; details: read-out: % Ctrl TXK
Method: as §3, §2

[1] = molecular target: JAK3(JH1domain-catalytic) (Homo sapiens, UniProt P52333); assay: KINOMEscan binding; details: read-out: % Ctrl JAK3(JH1domain-catalytic)
Method: as §1, §2

PIK3CB = PIK3CB (Homo sapiens, UniProt P42338); assay: KINOMEscan binding; details: read-out: % Ctrl PIK3CB
PIK3CB, sequence (P42338 whole entry): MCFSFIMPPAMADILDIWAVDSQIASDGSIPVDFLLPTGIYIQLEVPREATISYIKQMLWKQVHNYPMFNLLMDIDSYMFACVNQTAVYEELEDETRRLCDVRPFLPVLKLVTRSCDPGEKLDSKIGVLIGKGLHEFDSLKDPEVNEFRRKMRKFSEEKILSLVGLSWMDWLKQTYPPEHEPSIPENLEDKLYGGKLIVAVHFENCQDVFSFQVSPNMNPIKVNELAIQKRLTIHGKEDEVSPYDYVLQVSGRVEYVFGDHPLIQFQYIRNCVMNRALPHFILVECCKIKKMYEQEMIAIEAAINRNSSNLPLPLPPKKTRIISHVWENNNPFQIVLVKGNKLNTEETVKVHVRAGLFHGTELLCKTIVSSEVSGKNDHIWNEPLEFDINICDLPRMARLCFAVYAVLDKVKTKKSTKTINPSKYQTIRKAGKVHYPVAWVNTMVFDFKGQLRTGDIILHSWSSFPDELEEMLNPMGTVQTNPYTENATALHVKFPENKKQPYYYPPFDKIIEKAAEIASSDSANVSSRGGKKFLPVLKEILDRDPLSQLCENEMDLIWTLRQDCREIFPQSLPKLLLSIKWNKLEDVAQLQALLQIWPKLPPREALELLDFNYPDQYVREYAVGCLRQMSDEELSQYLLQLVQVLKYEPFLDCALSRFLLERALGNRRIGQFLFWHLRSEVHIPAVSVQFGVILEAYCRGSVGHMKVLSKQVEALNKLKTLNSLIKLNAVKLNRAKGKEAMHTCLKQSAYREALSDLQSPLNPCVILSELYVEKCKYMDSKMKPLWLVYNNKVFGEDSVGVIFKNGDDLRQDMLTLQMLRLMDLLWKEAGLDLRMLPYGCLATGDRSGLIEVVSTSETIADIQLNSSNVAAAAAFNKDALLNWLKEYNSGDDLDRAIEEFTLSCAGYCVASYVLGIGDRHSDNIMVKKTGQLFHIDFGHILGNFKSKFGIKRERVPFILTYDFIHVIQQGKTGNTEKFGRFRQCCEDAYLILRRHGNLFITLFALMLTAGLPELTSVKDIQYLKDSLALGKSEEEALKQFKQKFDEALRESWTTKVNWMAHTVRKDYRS
Method: as §1, §2

YES1, sequence (P07947 whole entry): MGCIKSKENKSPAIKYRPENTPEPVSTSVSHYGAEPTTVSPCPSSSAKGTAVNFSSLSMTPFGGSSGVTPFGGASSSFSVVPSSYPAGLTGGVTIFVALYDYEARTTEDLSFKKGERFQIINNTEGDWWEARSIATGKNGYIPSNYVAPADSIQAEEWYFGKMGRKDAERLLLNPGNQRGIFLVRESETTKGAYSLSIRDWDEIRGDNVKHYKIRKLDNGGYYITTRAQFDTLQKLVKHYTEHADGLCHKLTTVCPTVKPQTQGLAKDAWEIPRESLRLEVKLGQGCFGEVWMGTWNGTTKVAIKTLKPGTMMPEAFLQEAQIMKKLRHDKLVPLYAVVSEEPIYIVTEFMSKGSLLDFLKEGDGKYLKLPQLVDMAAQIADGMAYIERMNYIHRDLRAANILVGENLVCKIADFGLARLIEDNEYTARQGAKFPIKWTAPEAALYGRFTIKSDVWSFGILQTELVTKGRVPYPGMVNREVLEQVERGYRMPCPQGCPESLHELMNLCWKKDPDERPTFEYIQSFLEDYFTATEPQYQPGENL
JAK3(JH1domain-catalytic), sequence (P52333 814-1124 limits assumed): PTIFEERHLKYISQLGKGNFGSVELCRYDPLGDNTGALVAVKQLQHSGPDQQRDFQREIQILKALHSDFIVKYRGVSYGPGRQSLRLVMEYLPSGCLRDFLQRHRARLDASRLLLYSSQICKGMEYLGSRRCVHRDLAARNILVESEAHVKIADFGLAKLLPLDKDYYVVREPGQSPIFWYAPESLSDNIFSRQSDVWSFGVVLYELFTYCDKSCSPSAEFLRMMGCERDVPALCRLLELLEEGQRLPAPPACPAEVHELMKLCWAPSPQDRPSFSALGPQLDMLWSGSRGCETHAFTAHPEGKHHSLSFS
FYN, sequence (P06241 whole entry): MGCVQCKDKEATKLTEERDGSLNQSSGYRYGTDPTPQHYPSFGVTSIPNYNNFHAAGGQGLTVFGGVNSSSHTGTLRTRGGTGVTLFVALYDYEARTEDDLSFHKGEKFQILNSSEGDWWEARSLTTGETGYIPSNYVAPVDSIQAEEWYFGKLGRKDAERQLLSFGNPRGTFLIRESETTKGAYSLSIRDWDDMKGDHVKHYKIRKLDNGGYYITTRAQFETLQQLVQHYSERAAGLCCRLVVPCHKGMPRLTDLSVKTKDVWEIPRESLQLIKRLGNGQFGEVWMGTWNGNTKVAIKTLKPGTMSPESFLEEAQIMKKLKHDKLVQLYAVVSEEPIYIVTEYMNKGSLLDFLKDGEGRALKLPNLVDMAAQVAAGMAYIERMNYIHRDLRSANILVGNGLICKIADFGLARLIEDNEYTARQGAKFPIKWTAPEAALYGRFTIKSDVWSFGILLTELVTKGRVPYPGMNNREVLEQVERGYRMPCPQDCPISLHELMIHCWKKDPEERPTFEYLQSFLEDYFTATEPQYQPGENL
AXL, sequence (P30530 26-894): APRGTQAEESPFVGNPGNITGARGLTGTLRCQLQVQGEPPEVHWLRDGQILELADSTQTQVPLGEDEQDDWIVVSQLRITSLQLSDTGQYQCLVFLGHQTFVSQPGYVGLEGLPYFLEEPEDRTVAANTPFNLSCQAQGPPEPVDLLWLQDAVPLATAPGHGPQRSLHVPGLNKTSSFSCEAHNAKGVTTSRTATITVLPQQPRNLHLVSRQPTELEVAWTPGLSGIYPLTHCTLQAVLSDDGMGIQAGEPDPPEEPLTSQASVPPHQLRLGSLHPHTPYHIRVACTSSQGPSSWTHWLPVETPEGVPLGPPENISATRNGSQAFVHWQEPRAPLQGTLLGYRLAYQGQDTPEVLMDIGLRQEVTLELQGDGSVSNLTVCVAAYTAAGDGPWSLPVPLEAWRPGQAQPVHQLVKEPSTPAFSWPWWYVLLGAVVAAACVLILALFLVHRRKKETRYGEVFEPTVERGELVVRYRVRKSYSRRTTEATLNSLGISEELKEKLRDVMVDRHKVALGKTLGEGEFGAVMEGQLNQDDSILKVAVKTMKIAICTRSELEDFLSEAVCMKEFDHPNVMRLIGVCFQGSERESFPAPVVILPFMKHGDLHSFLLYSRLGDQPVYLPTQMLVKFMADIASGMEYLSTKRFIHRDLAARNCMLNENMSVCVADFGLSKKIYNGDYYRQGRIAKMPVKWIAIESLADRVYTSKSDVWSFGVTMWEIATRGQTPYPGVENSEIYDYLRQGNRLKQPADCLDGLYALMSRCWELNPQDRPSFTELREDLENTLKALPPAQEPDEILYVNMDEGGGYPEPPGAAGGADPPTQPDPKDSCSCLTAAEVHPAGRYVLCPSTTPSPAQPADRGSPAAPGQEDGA
AKT2, sequence (P31751 whole entry): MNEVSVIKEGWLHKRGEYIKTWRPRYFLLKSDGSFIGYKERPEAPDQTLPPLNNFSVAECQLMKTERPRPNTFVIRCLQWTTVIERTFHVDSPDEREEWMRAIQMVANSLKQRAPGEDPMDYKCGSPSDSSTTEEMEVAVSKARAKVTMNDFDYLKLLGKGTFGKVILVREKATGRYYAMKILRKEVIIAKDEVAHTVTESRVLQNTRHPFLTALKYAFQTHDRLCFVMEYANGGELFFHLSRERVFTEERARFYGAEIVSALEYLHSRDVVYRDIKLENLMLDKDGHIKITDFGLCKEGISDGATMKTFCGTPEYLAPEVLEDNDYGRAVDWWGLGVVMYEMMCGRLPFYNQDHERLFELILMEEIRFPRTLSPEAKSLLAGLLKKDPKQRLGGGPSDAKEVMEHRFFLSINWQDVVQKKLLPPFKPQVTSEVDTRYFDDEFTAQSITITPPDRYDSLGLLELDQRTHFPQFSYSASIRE
T1 sequence (P51813 417-675 limits assumed): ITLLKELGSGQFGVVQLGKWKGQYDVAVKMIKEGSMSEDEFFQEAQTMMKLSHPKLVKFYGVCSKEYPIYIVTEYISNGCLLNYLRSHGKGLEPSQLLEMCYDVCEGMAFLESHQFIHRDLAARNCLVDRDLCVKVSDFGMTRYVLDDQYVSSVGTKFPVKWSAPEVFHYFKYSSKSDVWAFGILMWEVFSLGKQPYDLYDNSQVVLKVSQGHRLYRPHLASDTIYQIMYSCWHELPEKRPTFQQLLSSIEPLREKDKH
TXK, sequence (P42681 whole entry): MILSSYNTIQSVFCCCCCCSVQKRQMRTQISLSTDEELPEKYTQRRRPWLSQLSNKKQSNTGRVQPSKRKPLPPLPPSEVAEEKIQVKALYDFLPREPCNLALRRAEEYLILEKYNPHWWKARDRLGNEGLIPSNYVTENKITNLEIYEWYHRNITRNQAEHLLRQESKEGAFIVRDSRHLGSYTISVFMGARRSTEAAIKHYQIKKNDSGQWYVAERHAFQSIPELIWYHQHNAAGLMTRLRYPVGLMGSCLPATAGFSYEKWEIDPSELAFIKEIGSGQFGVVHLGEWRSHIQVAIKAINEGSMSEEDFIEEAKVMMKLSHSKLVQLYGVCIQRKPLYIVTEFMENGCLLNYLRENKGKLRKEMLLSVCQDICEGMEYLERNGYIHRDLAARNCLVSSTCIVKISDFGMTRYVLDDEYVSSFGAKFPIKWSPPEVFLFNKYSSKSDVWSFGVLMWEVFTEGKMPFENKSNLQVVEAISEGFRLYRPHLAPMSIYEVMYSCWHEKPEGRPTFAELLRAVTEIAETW

SMILES | GI50 (22 RV1) | site of covalent modification of hBMX (hBMX) | GI50 (H1299) | GI50 (Jurkat) | GI50 (SK-N-MC) | remaining binding at 1 µM (AKT2) | remaining binding at 1 µM (ERBB4) | remaining binding at 1 µM (FYN) | remaining binding at 1 µM (AXL) | remaining binding at 1 µM (PIK3CG) | remaining binding at 1 µM (YES1) | remaining binding at 1 µM (PIK3CD) | remaining binding at 1 µM (TXK) | remaining binding at 1 µM [1] | remaining binding at 1 µM (PIK3CB)
C=CC(=O)Nc1cc(-n2c(=O)ccc3cnc4cc(-c5ccc(NS(C)(=O)=O)cc5)ccc4c32)ccc1C [JS24] | 6.66 ± 0.09 µM | covalent modification at cysteine residue 496 | 7.28 ± 0.37 µM | 5.48 µM | 8.53 ± 0.44 µM |  |  |  |  |  |  |  |  |  | 
C=CC(=O)Nc1cc(C)cc(-n2c(=O)ccc3cnc4cc(-c5ccc(NS(C)(=O)=O)cc5)ccc4c32)c1 [JS25] |  |  |  |  |  | 94% | 66% | 99% | 93% | 64% | 85% | 100% | 3.4% | 21% | 89%
